In US20260115202A1, “TOPICAL COMPOSITIONS COMPRISING AN ESTETROL COMPONENT AND USE OF SAID COMPOSITIONS FOR WOUND HEALING” (NEURALIS SA, priority 2022, published 2026):
Entries after “also recorded” stand apart in the source; their conditions may differ.

Assays:
[1] = tested on: murine dermal fibroblasts (MDFs); assay: Scratch wound assay, murine dermal fibroblasts; type: cell-based, mouse; conditions: MDF, 24 hours, versus vehicle control
Description: (§1) Primary human dermal fibroblasts (HDF) were isolated from abdominal skin or leg skin. Primary neonatal normal human epidermal keratinocytes (NHEK) were purchased (Lonza). Murine dermal fibroblasts (MDF), murine epidermal keratinocytes (MEK), murine peritoneal macrophages and murine bone marrow were isolated from C57/B16 (wt). NDb (Lepr+/−) or Db (Lepr−/−) mice.
Fibroblasts were isolated and cultured in DMEM supplemented with 10% heat inactivated FBS. 1% penicillin/streptomycin and 1% amphotericin B. At least 4 days prior to performing assays cells were switched to DMEM supplemented with 5% charcoal-stripped FBS.
Cells were seeded into 24 well plates and cultured to form a confluent monolayer, and then scratched with a 1 ml pipette tip. Wells were treated with E2, E4 and/or various estrogen receptor agonists and antagonists. […] A vehicle control containing the equivalent concentration of EtOH and/or DMSO was included, in addition to an untreated negative control. All treatments were diluted to working concentrations in media supplemented with 2% charcoal-stripped FBS. To visualise scratches at the defined endpoint, cells were stained with crystal violet and imaged on a Nikon E400 brightfield microscope. Scratch closure was determined from multiple independent measurements per well.

[2] = tested on: murine dermal fibroblasts (MDF); assay: qPCR gene expression in murine dermal fibroblasts; type: cell-based, mouse; conditions: for expression of ERα and ERβ: MDF, 10^−7M, qPCR
Description: Primary human dermal fibroblasts (HDF) were isolated from abdominal skin or leg skin. Primary neonatal normal human epidermal keratinocytes (NHEK) were purchased (Lonza). Murine dermal fibroblasts (MDF), murine epidermal keratinocytes (MEK), murine peritoneal macrophages and murine bone marrow were isolated from C57/B16 (wt). NDb (Lepr+/−) or Db (Lepr−/−) mice. Fibroblasts were isolated and cultured in DMEM supplemented with 10% heat inactivated FBS. 1% penicillin/streptomycin and 1% amphotericin B. At least 4 days prior to performing assays cells were switched to DMEM supplemented with 5% charcoal-stripped FBS. Following treatments, human and murine macrophages were collected in Trizol and RNA isolated using the Trizol plus RNA isolation kit (Invitrogen. Thermo Fisher) according to the manufacturer's instructions. RNA was reverse transcribed to cDNA using GoScript reverse transcriptase (Promega). Quantitative real-time PCR was carried out using 2×Takyon SYBR Green mastermix and a CFX Connect thermocycler. Primers for ERα and ERβ were used to explore changes in ER expression after treatment of MEK and MDF with E2 and E4. To investigate the effect of E2 and E4 on MEK differentiation and the expression of ECM proteins by MDF, primers for. Snail, keratin-1 and fibronectin, collagen I. MMP-2 and MMP-9 were used. Primers for INOS. IL-1B and Tnf-α or Ccl17 were used to assess M1/M2 polarisation status. Primers for GAPDH were used to normalise data. Relative gene expression was set to vehicle controls or M0 expression unless otherwise stated. In vitro cultured murine fibroblasts were treated with either E2, E4, DPN or PPT at 10^−7M. As previously reported. […] Next, zymography was performed on cell supernatants from HDFs treated with either E2 or E4, to evaluate the effect of E2 and E4 on cell-derived MMP activity. […] The magnitude of the effect (and statistical significance) was greater in cells treated with E4. No MMP9 activity was detected in any treatment group. Finally, we explored the effect of E2 and E4 on murine fibroblast expression of extracellular matrix genes, specifically collagen 1 (Colal) and fibronectin (Fn1) (FIG. 20).

[3] = tested on: primary mouse epidermal keratinocytes (MEKs); assay: qPCR gene expression in primary mouse epidermal keratinocytes; type: cell-based; conditions: MEK; for expression of EMT marker Snail: 10^−7M; for expression of ERα and ERβ: particularly at 10^−7M, 24 hours, not statistically significant
Description: as §1
Neonatal HEK were cultured in EpiLife supplemented with […] human keratinocyte growth supplements (HKGS) and 1% penicillin/streptomycin. MEK were cultured in CnT basal medium supplemented with 1% penicillin/streptomycin and 1% amphotericin B.
Following treatments, human and murine macrophages were collected in Trizol and RNA isolated using the Trizol plus RNA isolation kit (Invitrogen. Thermo Fisher) according to the manufacturer's instructions. RNA was reverse transcribed to cDNA using GoScript reverse transcriptase (Promega). Quantitative real-time PCR was carried out using 2×Takyon SYBR Green mastermix and a CFX Connect thermocycler. Primers for ERα and ERβ were used to explore changes in ER expression after treatment of MEK and MDF with E2 and E4. To investigate the effect of E2 and E4 on MEK differentiation and the expression of ECM proteins by MDF, primers for. Snail, keratin-1 and fibronectin, collagen I. MMP-2 and MMP-9 were used. Primers for INOS. IL-1B and Tnf-α or Ccl17 were used to assess M1/M2 polarisation status. Primers for GAPDH were used to normalise data. Relative gene expression was set to vehicle controls or M0 expression unless otherwise stated.
Next, we switched to primary mouse epidermal keratinocytes (MEKs) to explore the effect of E2 and E4 on MEK wound-relevant gene expression. […] Snail, following treatment with either E2 or E4 at 10^−7M. […] In general, the observed effects of E2 and E4 on gene expression were reversed by co-treatment with the ER antagonist ICI.

[4] = tested on: murine peritoneal macrophages; assay: M1-polarised freshly isolated murine peritoneal macrophages, qPCR of M1 markers; type: cell-based, mouse; conditions: peritoneal macrophages pre-treated at 10^−7M, M1 polarised 6 hours; for expression of M1 markers (iNOS, IL1-β, Tnf-α): versus vehicle
Description: Peritoneal macrophages from C57/B16 mice were isolated by peritoneal lavage. The peritoneal cavity of euthanised mice were filled with 5 ml ice cold PBS supplemented with 3% FBS. Cell-containing lavage fluid was removed using a needle and syringe and cells seeded into 12- or 6-well plates at 1×10^6 cells/ml in RPM1 growth medium supplemented with 10% charcoal-stripped FBS and 1% penicillin/streptomycin, were treated with 10^-7M E2 or E4 in serum free growth medium for 16 hours and polarised to M1-type cells using 100 ng/ml IFN-γ and 1 μg/ml LPS. Following 6- or 24-hours polarisation cells were collected for RNA isolation or flow cytometry. Following treatments, human and murine macrophages were collected in Trizol and RNA isolated using the Trizol plus RNA isolation kit (Invitrogen. Thermo Fisher) according to the manufacturer's instructions. RNA was reverse transcribed to cDNA using GoScript reverse transcriptase (Promega). Quantitative real-time PCR was carried out using 2×Takyon SYBR Green mastermix and a CFX Connect thermocycler. Primers for ERα and ERβ were used to explore changes in ER expression after treatment of MEK and MDF with E2 and E4. To investigate the effect of E2 and E4 on MEK differentiation and the expression of ECM proteins by MDF, primers for. Snail, keratin-1 and fibronectin, collagen I. MMP-2 and MMP-9 were used. Primers for INOS. IL-1B and Tnf-α or Ccl17 were used to assess M1/M2 polarisation status. Primers for GAPDH were used to normalise data. Relative gene expression was set to vehicle controls or M0 expression unless otherwise stated. Finally, the anti-inflammatory effects E2 and E4 were evaluated in freshly isolated murine peritoneal macrophages. Unlike the BMDM protocol, the already differentiated peritoneal macrophages were immediately pre-treated with E2 (10^−7M) or E4 (10^−7M), followed by M1 polarisation using IFN-γ and LPS for 6 hours. […] Note, the overall level of marker expression was higher in these cells. […] The observed anti-inflammatory effects of E4 were broadly similar to those observed for E2.

[5] = fibroblasts derived from diabetic (db/db) mice
[6] = fibroblasts derived from wild-type mice

Compound | scratch closure [1] | expression of ERα and ERβ [2] | expression of collagen 1 and fibronectin (Fn1) [2, 5] | expression of collagen 1 and fibronectin (Fn1) [2, 6] | expression of differentiation marker Keratin 1 (Krt1) [3] | expression of EMT marker Snail [3] | expression of ERα and ERβ [3] | expression of IL1-β [4] | expression of M1 markers (iNOS, IL1-β, Tnf-α) [4]
C[C@]12CC[C@@H]3c4ccc(O)cc4CC[C@H]3[C@@H]1[C@@H](O)[C@@H](O)[C@@H]2O [Formulation E4, 1,3,5 (10)-estratrien-3,15alpha, 16alpha, 17beta-tetrol] | significantly increased scratch closure compared to vehicle control treatment | increases expression of both ERα and ERβ | trend towards increased expression of both Co1a1 and Fn1; also recorded: reached statistical significance for fibronectin (Fn1) | no effect was observed following treatment | trend towards downregulation | statistically significant induction | strong trend towards increased expression of both ERα and ERβ | achieved statistical significance | strong trend towards reduced expression
C[C@]12CC[C@@H]3c4ccc(O)cc4CC[C@H]3[C@@H]1CC[C@@H]2O [Formulation E2, 17β-estradiol, reference compound] | significantly increased scratch closure compared to vehicle control treatment | upregulated expression of both ERα and ERβ | trend towards increased expression of both Co1a1 and Fn1 | no effect was observed following treatment | trend towards downregulation | statistically significant induction | strong trend towards induction of both ERα and ERβ | – | strong trend towards reduced expression
